Literature values in patent publication US7914804B2, “Slow release pharmaceutical preparation and method of administering same” (Palmaya Pty Ltd, priority 2001, dated 2011).

Structure (SMILES) | effectiveness relative to Naloxone (thought to be) | lasting in the body relative to Naloxone (thought to be) [times] | t1/2 (in the body)
O=C1CC[C@@]2(O)[C@H]3Cc4ccc(O)c5c4[C@@]2(CCN3CC2CC2)[C@H]1O5 [Naltrexone] | twice as effective | 8 | –
C=CCN1CC[C@]23c4c5ccc(O)c4O[C@H]2C(=O)CC[C@@]3(O)[C@H]1C5 [Naloxone] | – | – | ½
